The target of one assay is T1, CaV2.2 (Homo sapiens, UniProt Q00975).
T1 construct: expressed in transfected cells; host or cells: HEK293
As to the kind of experiment: VIPR optical membrane potential assay with electrical stimulation, CaV2.2. Type of assay: cell-based. The conditions noted are these: Table 9, CaV 2.2 receptors. The procedure: A. Optical Methods for Assaying CaV Inhibition Properties of Compounds:
(§1) Antagonist properties of test compounds were assessed as follows. Cells expressing the CaV of interest were placed into microtiter plates. After an incubation period, the cells were stained with fluorescent dyes sensitive to the transmembrane potential. The test compounds were added to the microtiter plate. The cells were stimulated with electrical means to evoke a CaV dependent membrane potential change from unblocked channels, which was detected and measured with trans-membrane potential-sensitive dyes. Antagonists were detected as a decreased membrane potential response to the stimulus.
(§2) VIPR® Optical Membrane Potential Assay Method with Electrical Stimulation
The following is an example of how CaV2.2 inhibition activity is measured using the optical membrane potential method. Other subtypes are performed in an analogous mode in a cell line expressing the CaV of interest.
HEK293 cells stably expressing CaV2.2 are plated into 96-well microtiter plates. After an appropriate incubation period, the cells are stained with the voltage sensitive dyes CC2-DMPE/DiSBAC2(3) as follows.
2X CC2-DMPE=20 μM CC2-DMPE: 10 mM CC2-DMPE is vortexed with an equivalent volume of 10% Pluronic, followed by vortexing in required amount of HBSS containing 10 mM HEPES. Each cell plate will require 5 mL of 2×CC2-DMPE. 50 μL of 2×CC2-DMPE is added to wells containing washed cells, resulting in a 10 μM final staining concentration. The cells are stained for 30 minutes in the dark at RT.
Vortex in required amount of Bath X with beta-cyclodextrin. Each 96 well cell plate will require 5 ml of 2XCC2DMPE. Wash plate with ELx405 with Bath X, leaving a residual volume of 50 μL/well. Add 50 μL of 2XCC2DMPE & […] to each well. Stain for 30 minutes in the dark at RT.
Allow solution to sit for 10 minutes. Slowly mix in 370 mM BaCl2. This solution can be used to solvate compound plates. Note that compound plates are made at 1.5× drug concentration and not the usual 2X. Wash CC2 stained plate, again, leaving residual volume of 50 μL. Add 100 uL/well of the AY17 solution. Stain for 15 minutes in the dark at RT. Run plate on the optical reader.
(§3) The instrument comprises a microtiter plate handler, an optical system for exciting the coumarin dye while simultaneously recording the coumarin and oxonol emissions, a waveform generator, a current- or voltage-controlled amplifier, and a device for inserting electrodes in well. Under integrated computer control, this instrument passes user-programmed electrical stimulus protocols to cells within the wells of the microtiter plate.
Insert or use electrodes into each well to be assayed.
Use the current-controlled amplifier to deliver stimulation wave pulses for 3-5 s. Two seconds of pre-stimulus recording are performed to obtain the un-stimulated intensities. Five seconds of post-stimulation recording are performed to examine the relaxation to the resting state.
(§4) Data are analyzed and reported as normalized ratios of background-subtracted emission intensities measured in the 460 nm and 580 nm channels. Background intensities are then subtracted from each assay channel. Background intensities are obtained by measuring the emission intensities during the same time periods from identically treated assay wells in which there are no cells. The response as a function of time is then reported as the ratios obtained using the following formula: […]
(§5) The data is further reduced by calculating the initial (Ri) and final (Rf) ratios. These are the average ratio values during part or all of the pre-stimulation period, and during sample points during the stimulation period. The response to the stimulus R=Rf/Ri is then calculated.
Control responses are obtained by performing assays in the presence of a compound with the desired properties (positive control), such as mibefradil, and in the absence of pharmacological agents (negative control).

A further assay addresses T2, NaV1.3 (Homo sapiens, UniProt Q9NY46).
T2 construct: expressed in transfected cells; host or cells: HEK293
As to the kind of experiment: VIPR optical membrane potential assay with electrical stimulation, NaV1.3. The conditions noted are these: Table 9, NaV 1.3 receptors. Type of assay: cell-based. The method, then:
as §1, with “expressing the NaV of interest” for “expressing the CaV of interest”, “stimulated with either chemical or electrical means” for “stimulated with electrical means”, “evoke a NaV dependent membrane” for “evoke a CaV dependent membrane”
as §2
The following is an example of how NaV1.3 inhibition activity is measured using the optical membrane potential method#2. Other subtypes are performed in an analogous mode in a cell line expressing the NaV of interest.
HEK293 cells stably expressing NaV1.3 are plated into 96-well microtiter plates. After an appropriate incubation period, the cells are stained with the voltage sensitive dyes CC2-DMPE/DiSBAC2(3) as follows.
2X CC2-DMPE=20 μM CC2-DMPE: 10 mM CC2-DMPE is vortexed with an equivalent volume of 10% pluronic, followed by vortexing in required amount of HBSS containing 10 mM HEPES. Each cell plate will require 5 mL of 2×CC2-DMPE. 50 μL of 2×CC2-DMPE is added to wells containing washed cells, resulting in a 10 μM final staining concentration. The cells are stained for 30 minutes in the dark at RT.
2X DISBAC2(3) with ABSC1=6 μM DISBAC2(3) and 1 mM ABSC1: The required amount of 10 mM DISBAC2(3) is added to a 50 ml conical tube and mixed with 1 μL 10% pluronic for each mL of solution to be made and vortexed together. Then HBSS/HEPES is added to make up 2× solution. Finally, the ABSC1 is added.
The 2X DiSBAC2(3) solution can be used to solvate compound plates. Note that compound plates are made at 2× drug concentration. Wash stained plate again, leaving residual volume of 50 Add 50 μL/well of the 2X DiSBAC2(3) w/ABSC1. Stain for 30 minutes in the dark at RT.
as §3
• 1. Insert or use electrodes into each well to be assayed. • 2. Use the current-controlled amplifier to deliver stimulation wave pulses for 3 s. Two seconds of pre-stimulus recording are performed to obtain the un-stimulated intensities. Five seconds of post-stimulation recording are performed to examine the relaxation to the resting state. Data Analysis
as §4, §5
Control responses are obtained by performing assays in the presence of a compound with the desired properties (positive control), such as tetracaine, and in the absence of pharmacological agents (negative control). Responses to the negative (N) and positive (P) controls are calculated as above. The compound antagonist activity A is defined as: […]

For orientation: pIC50 means the negative decadic logarithm of the IC50, by convention in mol/L.

Each structure is given as a SMILES string. pIC50: −log10 of the molar value.

T2 sequence (Q9NY46 whole entry): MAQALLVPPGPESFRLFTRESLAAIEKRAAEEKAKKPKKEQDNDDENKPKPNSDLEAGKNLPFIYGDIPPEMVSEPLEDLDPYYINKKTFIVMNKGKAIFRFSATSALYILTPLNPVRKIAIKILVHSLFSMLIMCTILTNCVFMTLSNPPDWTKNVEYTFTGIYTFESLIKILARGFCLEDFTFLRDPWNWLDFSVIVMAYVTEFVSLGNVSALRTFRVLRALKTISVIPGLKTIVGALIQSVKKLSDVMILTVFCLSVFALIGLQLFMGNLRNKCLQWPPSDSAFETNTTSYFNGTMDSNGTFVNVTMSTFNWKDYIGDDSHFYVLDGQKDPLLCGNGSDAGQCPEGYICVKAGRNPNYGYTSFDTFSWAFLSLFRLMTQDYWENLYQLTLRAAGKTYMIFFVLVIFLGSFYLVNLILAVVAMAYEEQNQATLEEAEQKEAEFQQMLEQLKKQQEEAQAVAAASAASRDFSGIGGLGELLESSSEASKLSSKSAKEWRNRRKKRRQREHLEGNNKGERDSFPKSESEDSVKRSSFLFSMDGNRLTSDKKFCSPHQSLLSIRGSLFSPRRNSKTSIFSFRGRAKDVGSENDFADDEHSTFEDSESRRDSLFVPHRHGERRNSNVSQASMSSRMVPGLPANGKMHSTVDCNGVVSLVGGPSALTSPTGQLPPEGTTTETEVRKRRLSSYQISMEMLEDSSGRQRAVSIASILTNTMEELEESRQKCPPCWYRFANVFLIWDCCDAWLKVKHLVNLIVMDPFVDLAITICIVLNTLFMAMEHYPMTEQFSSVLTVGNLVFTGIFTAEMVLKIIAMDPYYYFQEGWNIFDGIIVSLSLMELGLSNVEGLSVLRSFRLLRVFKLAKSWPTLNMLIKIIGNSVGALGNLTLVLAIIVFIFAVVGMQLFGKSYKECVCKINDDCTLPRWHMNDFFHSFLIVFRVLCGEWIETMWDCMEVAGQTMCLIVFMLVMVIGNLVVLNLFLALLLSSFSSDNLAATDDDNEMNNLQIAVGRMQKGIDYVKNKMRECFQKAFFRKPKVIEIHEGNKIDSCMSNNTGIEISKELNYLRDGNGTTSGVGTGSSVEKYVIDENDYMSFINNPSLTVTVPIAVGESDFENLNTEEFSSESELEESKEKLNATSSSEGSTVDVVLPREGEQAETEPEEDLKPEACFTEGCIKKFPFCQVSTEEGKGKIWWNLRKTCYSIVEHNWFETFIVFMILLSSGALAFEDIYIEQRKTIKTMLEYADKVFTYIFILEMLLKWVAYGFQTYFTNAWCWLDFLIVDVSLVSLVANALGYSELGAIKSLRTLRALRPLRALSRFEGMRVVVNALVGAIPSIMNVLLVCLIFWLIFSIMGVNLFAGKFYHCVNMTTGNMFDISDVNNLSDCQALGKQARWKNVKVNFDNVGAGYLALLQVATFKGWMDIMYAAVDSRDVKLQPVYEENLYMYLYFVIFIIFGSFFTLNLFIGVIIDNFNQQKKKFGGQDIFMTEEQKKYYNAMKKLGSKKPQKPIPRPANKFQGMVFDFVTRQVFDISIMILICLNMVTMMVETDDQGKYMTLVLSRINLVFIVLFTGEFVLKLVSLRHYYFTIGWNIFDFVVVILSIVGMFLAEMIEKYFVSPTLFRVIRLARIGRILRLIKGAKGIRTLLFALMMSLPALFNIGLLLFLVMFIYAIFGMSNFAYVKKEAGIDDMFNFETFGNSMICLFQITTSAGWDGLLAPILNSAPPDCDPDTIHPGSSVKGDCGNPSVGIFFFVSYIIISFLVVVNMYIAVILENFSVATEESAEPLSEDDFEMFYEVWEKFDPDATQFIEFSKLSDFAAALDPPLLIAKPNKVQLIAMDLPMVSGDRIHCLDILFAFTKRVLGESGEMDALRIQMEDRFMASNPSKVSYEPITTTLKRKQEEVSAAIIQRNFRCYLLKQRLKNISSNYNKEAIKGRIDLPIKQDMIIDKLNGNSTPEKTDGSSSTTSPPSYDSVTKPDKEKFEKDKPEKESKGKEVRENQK

For `CCN(Cc1cccc(C)c1)C(=O)c1cnc(NCC2CC2)nc1-c1ccccc1F` [compound 209], the pIC50 against CaV2.2 and against NaV1.3 was under 5.00 throughout.

As to `CCN(C)C(=O)c1cnc(N2CCCC(C(N)=O)C2)nc1-c1ccc(C#N)cc1` (centres unmarked) [compound 284], the pIC50 against CaV2.2 and against NaV1.3 was under 5.00 in each case.

Turning to `COc1ccc(CCNc2ncc(C(=O)N3CCC(C)CC3)c(-c3ccc(C#N)cc3)n2)cc1` [compound 316], the pIC50 on CaV2.2 and at NaV1.3 was under 5.00 each time.

Consider `CC(=O)N1CCN(c2ncc(C(=O)N3CCC(C)CC3)c(-c3ccc(-c4ccccc4)cc3)n2)CC1` [compound 334], for which the pIC50 on CaV2.2 is 5.00 to 5.70; at NaV1.3, under 5.00.

On to `COCCCNc1ncc(C(=O)NCC2CCCCC2)c(-c2cccc(C)c2)n1` [compound 330], for which the pIC50 against CaV2.2 and on NaV1.3 was under 5.00 throughout.

Turning to `CCCCNC(=O)c1cnc(NCCCC)nc1-c1cccc(C)c1` [compound 214], at CaV2.2, the pIC50 was under 5.00.

For the compound `CCC(C)Nc1ncc(C(=O)N(C)CC)c(-c2ccc(C#N)cc2)n1` (centres unmarked) [compound 336], the pIC50 at CaV2.2 and at NaV1.3 was under 5.00 in each case.

On to `COCCCNC(=O)c1cnc(NCC2CC2)nc1-c1cccc(C)c1` [compound 257], for which the pIC50 against CaV2.2 and on NaV1.3 was under 5.00 in each case.

The compound `N#Cc1ccc(-c2nc(N3CCOCC3)ncc2C(=O)NCc2ccccc2C(F)(F)F)cc1` [compound 287] had a pIC50 against CaV2.2 of under 5.00.

Take `CC(C)CN(C)C(=O)c1cnc(NCCc2cccc(F)c2)nc1-c1ccc(C#N)cc1` [compound 295]: the values for the pIC50 on CaV2.2 and at NaV1.3 were 5.00 to 5.70 and under 5.00, respectively.

Take `CCN(C)c1ncc(C(=O)NCCOC)c(-c2ccc(C#N)cc2)n1` [compound 314]: the pIC50 against CaV2.2 and against NaV1.3 was under 5.00 throughout.

For `CCCCNC(=O)c1cnc(N(C)CCc2ccc(OC)c(OC)c2)nc1-c1ccc(C#N)cc1` [compound 299], the pIC50 against CaV2.2 and against NaV1.3 was under 5.00 each time.

Turning to `CCC(C)Nc1ncc(C(=O)N(C)CC)c(-c2cccc(C)c2)n1` (centres unmarked) [compound 273], the pIC50 against CaV2.2 and against NaV1.3 was under 5.00 throughout.

On to `CCCCNC(=O)c1cnc(NC2CCCC2)nc1-c1cccc(C)c1` [compound 218], for which the pIC50 against CaV2.2 and at NaV1.3 was under 5.00 in each case.

Consider `COCCCNC(=O)c1cnc(NC2CCCCC2)nc1-c1ccc(-c2ccccc2)cc1` [compound 310], for which the pIC50 against CaV2.2 and against NaV1.3 was under 5.00 throughout.

For the compound `Cc1cccc(-c2nc(NCc3ccc4c(c3)OCO4)ncc2C(=O)N2CCOCC2)c1` [compound 264], the pIC50 on CaV2.2 and against NaV1.3 was under 5.00 in each case.

For `CCN(Cc1cccc(C)c1)C(=O)c1cnc(N2CCOCC2)nc1-c1ccc(C#N)cc1` [compound 247], the pIC50 at CaV2.2 and against NaV1.3 was under 5.00 throughout.

For the compound `CC(=O)NCCNc1ncc(C(=O)N(Cc2ccccc2)C(C)C)c(-c2ccccc2F)n1` [compound 291], the pIC50 against CaV2.2 and against NaV1.3 was under 5.00 in each case.

`CCN(Cc1ccccc1)C(=O)c1cnc(N2CCCC2)nc1-c1ccc(C#N)cc1` [compound 340]: the pIC50 on CaV2.2 and at NaV1.3 was under 5.00 in each case.

Regarding `CCN(C)c1ncc(C(=O)N2CC(C)CC(C)C2)c(-c2ccc(C#N)cc2)n1` (centres unmarked) [compound 347], the pIC50 against CaV2.2 and against NaV1.3 was under 5.00 each time.

For `CCN(C)C(=O)c1cnc(NCCc2ccc(OC)cc2)nc1-c1cccc(C)c1` [compound 234], at CaV2.2, the pIC50 is under 5.00.

For `CCN(Cc1ccccc1)C(=O)c1cnc(NC2CCCC2)nc1-c1ccccc1F` [compound 311], the pIC50 against CaV2.2 was under 5.00.

On CaV2.2, `CC1CCN(C(=O)c2cnc(NCc3ccccc3C(F)(F)F)nc2-c2ccc(C#N)cc2)CC1` [compound 221] gave a pIC50 of under 5.00.

`CC(C)CN(C)C(=O)c1cnc(N2CCOCC2)nc1-c1ccccc1F` [compound 215] showed a pIC50 at CaV2.2 of under 5.00.

For `CCC(C)NC(=O)c1cnc(N2CCOCC2)nc1-c1ccccc1F` (centres unmarked) [compound 213], the pIC50 on CaV2.2 was under 5.00.

At CaV2.2, `CC1CCCCC1NC(=O)c1cnc(N2CCOCC2)nc1-c1ccccc1F` (centres unmarked) [compound 254] showed a pIC50 of under 5.00.

`N#Cc1ccc(-c2nc(NCCc3cccc(F)c3)ncc2C(=O)NCc2ccccc2)cc1` [compound 249]: the pIC50 at CaV2.2 was under 5.00.

On CaV2.2, `O=C(c1cnc(N2CCOCC2)nc1-c1ccccc1F)N1CCCC1` [compound 250] had a pIC50 of under 5.00.

`Cc1cccc(-c2nc(NCc3cccc(Cl)c3)ncc2C(=O)N2CCOCC2)c1` [compound 318]: the pIC50 against CaV2.2 is under 5.00.

The compound `Cc1nc(N2CCOCC2)nc(-c2ccccc2F)c1C(=O)N(Cc1ccccc1)C(C)C` [compound 338, N-benzyl-4-(2-fluorophenyl)-N-isopropyl-6-methyl-2-morpholinopyrimidine-5-carboxamide] gave a pIC50 against CaV2.2 of under 5.00.

On CaV2.2, `O=C(NCC1CC1)c1cnc(N2CCOCC2)nc1-c1ccccc1F` [compound 212] gave a pIC50 of under 5.00.

In the case of `O=C(NCC1CCCCC1)c1cnc(N2CCOCC2)nc1-c1ccccc1F` [compound 328], the pIC50 at CaV2.2 was under 5.00.

The compound `O=C(c1cnc(N2CCOCC2)nc1-c1ccccc1F)N1CCOCC1` [compound 275] had a pIC50 against CaV2.2 of under 5.00.

The compound `CCN(C)c1ncc(C(=O)N(Cc2ccccc2)C(C)C)c(-c2ccccc2F)n1` [compound 312] had a pIC50 on CaV2.2 of 5.00 to 5.70.

On CaV2.2, `CCOCCN(CCOCC)C(=O)c1cnc(N2CCOCC2)nc1-c1ccccc1F` [compound 315] showed a pIC50 of under 5.00.

As to `CCN(Cc1cccc(C)c1)C(=O)c1cnc(N2CCCC2)nc1-c1ccccc1F` [compound 335], the pIC50 against CaV2.2 was 5.00 to 5.70.

`CN(C(=O)c1cnc(N2CCOCC2)nc1-c1ccccc1F)C1CCCCC1` [compound 283] had a pIC50 on CaV2.2 of under 5.00.

Consider `CC(=O)N1CCN(c2ncc(C(=O)N3CCCCC3)c(-c3ccc(-c4ccccc4)cc3)n2)CC1` [compound 278], for which, at CaV2.2, the pIC50 was 5.00 to 5.70.

Source of the values: US8546414B2, “Ion channel modulators and methods of use” (Vertex Pharmaceuticals Incorporated, priority 2004, dated 2013).
